From the kinase profiling compilation of Christmann-Franck et al. (2016)

Experiments:
Test in all cases: radiometric filter-binding kinase assay
ABL1 (human) = ABL1 (human) (UniProt P00519); details: compound 100.0 µM; ATP 5 µM
AURKA (human) = AURKA (human) (UniProt O14965); details: compound 100.0 µM; ATP 5 µM
BRSK2 (human) = BRSK2 (human) (UniProt Q8IWQ3); details: compound 100.0 µM; ATP 50 µM
CDK2 CCNA2 (human) = CDK2 CCNA2 (human) (UniProt P20248+P24941); details: compound 100.0 µM; ATP 20 µM
CHEK2 (human) = CHEK2 (human) (UniProt O96017); details: compound 100.0 µM; ATP 20 µM
CaMK1 (human) = CaMK1 (human) (UniProt Q14012); details: compound 100.0 µM; ATP 50 µM
DYRK2 (human) = DYRK2 (human) (UniProt Q92630); details: compound 100.0 µM; ATP 50 µM
EEF2K (human) = EEF2K (human) (UniProt O00418); details: compound 100.0 µM; ATP 5 µM
EPHA4 (human) = EPHA4 (human) (UniProt P54764); details: compound 100.0 µM; ATP 50 µM
EPHB3 (human) = EPHB3 (human) (UniProt P54753); details: compound 100.0 µM; ATP 20 µM
EPHB4 (human) = EPHB4 (human) (UniProt P54760); details: compound 100.0 µM; ATP 5 µM
FLT1 (human) = FLT1 (human) (UniProt P17948); details: compound 100.0 µM; ATP 20 µM
HIPK3 (human) = HIPK3 (human) (UniProt Q9H422); details: compound 100.0 µM; ATP 20 µM
IKBKE (human) = IKBKE (human) (UniProt Q14164); details: compound 100.0 µM; ATP 50 µM
LCK (mouse) = details: compound 100.0 µM; ATP 50 µM; accession and sequence are those of the human protein
MAPK10 (human) = MAPK10 (human) (UniProt P53779); details: compound 100.0 µM; ATP 20 µM
MAPK11 (human) = MAPK11 (human) (UniProt Q15759); details: compound 100.0 µM; ATP 20 µM
MAPK13 (human) = MAPK13 (human) (UniProt O15264); details: compound 100.0 µM; ATP 5 µM
MAPK9 (human) = MAPK9 (human) (UniProt P45984); details: compound 100.0 µM; ATP 20 µM
MELK (human) = MELK (human) (UniProt Q14680); details: compound 100.0 µM; ATP 50 µM
MST4 (human) = MST4 (human) (UniProt Q9P289); details: compound 100.0 µM; ATP 20 µM
NEK2 (human) = NEK2 (human) (UniProt P51955); details: compound 100.0 µM; ATP 50 µM
NUAK1 (human) = NUAK1 (human) (UniProt O60285); details: compound 100.0 µM; ATP 20 µM
PAK6 (human) = PAK6 (human) (UniProt Q9NQU5); details: compound 100.0 µM; ATP 20 µM
PAK7 (human) = PAK7 (human) (UniProt Q9P286); details: compound 100.0 µM; ATP 20 µM
PHKG1 (human) = PHKG1 (human) (UniProt Q16816); details: compound 100.0 µM; ATP 50 µM
PKN2 (human) = PKN2 (human) (UniProt Q16513); details: compound 100.0 µM; ATP 5 µM
PLK1 (human) = PLK1 (human) (UniProt P53350); details: compound 100.0 µM; ATP 5 µM
PRKCA (human) = PRKCA (human) (UniProt P17252); details: compound 100.0 µM; ATP 20 µM
PRKCG (human) = PRKCG (human) (UniProt P05129); details: compound 100.0 µM; ATP 20 µM
RPS6KA3 KD1 KD2 (human) = RPS6KA3 KD1 KD2 (human) (UniProt P51812); details: compound 100.0 µM; ATP 50 µM
[1] = test system: RPS6KB1 (human), P23443 [T412E]; details: compound 100.0 µM; ATP 20 µM
[2] = test system: SGK1 (human), O00141 [S422D]; details: compound 100.0 µM; ATP 20 µM
SRPK1 (human) = SRPK1 (human) (UniProt Q96SB4); details: compound 100.0 µM; ATP 50 µM
[3] = molecular target: STK11 CAB39 STRADA (human) (UniProt Q9Y376+Q7RTN6+Q15831); details: compound 100.0 µM; ATP 20 µM
TAOK1 (human) = TAOK1 (human) (UniProt Q7L7X3); details: compound 100.0 µM; ATP 20 µM
TBK1 (human) = TBK1 (human) (UniProt Q9UHD2); details: compound 100.0 µM; ATP 50 µM
TEK (human) = TEK (human) (UniProt Q02763); details: compound 100.0 µM; ATP 20 µM
ZAP70 (human) = ZAP70 (human) (UniProt P43403); details: compound 100.0 µM; ATP 5 µM

Sequence of PKN2 (human) (Q16513 whole entry, looked up): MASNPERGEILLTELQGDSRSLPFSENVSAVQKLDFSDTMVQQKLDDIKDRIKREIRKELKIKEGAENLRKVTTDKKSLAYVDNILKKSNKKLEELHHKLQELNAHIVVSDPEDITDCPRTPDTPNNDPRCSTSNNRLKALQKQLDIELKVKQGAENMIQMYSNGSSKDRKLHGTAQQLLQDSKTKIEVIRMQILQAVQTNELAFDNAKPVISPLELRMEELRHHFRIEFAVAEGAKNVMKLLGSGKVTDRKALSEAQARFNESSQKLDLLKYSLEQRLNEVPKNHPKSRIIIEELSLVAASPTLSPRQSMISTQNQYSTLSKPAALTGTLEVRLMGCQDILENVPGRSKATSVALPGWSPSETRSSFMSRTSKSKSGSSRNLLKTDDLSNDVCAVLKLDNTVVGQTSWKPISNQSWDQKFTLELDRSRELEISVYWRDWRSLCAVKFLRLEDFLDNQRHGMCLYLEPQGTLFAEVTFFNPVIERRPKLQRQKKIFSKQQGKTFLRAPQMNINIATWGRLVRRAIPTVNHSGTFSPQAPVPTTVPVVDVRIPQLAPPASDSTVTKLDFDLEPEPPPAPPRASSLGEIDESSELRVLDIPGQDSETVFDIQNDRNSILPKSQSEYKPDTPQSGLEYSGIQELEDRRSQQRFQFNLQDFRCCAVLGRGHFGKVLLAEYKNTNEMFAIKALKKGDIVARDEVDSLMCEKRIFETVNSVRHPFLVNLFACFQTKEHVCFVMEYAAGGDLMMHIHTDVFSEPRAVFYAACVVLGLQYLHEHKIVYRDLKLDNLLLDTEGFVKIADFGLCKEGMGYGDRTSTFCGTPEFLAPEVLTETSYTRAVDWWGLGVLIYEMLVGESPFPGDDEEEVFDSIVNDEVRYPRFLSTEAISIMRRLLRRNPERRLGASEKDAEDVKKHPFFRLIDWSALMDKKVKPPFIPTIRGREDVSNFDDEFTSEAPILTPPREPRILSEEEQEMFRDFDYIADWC
Sequence of BRSK2 (human) (Q8IWQ3 whole entry, looked up): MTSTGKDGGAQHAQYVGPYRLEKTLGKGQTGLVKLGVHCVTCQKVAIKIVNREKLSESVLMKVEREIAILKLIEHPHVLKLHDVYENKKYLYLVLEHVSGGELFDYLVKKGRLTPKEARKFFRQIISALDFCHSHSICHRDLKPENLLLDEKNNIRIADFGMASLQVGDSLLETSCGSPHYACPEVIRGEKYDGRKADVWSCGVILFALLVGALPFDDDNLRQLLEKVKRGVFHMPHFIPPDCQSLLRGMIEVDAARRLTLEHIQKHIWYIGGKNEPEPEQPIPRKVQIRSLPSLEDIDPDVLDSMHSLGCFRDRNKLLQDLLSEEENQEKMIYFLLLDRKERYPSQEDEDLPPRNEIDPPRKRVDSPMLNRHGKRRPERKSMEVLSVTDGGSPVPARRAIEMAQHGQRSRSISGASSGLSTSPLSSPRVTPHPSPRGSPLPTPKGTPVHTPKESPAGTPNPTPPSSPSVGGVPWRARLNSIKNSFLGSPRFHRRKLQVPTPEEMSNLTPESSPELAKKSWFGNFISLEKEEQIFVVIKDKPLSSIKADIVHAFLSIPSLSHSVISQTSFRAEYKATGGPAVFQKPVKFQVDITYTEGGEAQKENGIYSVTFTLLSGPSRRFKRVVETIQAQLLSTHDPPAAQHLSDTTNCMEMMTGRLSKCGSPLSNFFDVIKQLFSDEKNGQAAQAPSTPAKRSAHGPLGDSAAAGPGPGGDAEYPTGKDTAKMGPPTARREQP
Sequence of EEF2K (human) (O00418 whole entry, looked up): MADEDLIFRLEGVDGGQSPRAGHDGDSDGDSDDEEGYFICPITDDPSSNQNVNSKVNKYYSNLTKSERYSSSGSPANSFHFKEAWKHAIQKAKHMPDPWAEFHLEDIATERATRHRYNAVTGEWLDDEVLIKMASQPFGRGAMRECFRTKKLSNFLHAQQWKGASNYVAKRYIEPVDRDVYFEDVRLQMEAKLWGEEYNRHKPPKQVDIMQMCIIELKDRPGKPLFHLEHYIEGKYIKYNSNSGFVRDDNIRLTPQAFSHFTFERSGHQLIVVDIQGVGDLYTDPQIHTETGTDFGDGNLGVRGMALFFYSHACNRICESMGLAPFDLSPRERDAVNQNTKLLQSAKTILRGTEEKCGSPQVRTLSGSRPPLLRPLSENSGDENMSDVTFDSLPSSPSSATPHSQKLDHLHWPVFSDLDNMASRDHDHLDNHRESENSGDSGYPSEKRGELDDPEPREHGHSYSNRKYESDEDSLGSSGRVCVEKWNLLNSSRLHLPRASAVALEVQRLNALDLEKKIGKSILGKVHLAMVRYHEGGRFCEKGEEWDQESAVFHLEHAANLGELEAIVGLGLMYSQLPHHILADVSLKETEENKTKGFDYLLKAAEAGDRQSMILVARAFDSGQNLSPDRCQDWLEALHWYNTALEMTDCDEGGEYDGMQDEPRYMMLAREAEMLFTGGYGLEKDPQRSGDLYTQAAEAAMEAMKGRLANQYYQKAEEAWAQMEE
Sequence of NEK2 (human) (P51955 whole entry, looked up): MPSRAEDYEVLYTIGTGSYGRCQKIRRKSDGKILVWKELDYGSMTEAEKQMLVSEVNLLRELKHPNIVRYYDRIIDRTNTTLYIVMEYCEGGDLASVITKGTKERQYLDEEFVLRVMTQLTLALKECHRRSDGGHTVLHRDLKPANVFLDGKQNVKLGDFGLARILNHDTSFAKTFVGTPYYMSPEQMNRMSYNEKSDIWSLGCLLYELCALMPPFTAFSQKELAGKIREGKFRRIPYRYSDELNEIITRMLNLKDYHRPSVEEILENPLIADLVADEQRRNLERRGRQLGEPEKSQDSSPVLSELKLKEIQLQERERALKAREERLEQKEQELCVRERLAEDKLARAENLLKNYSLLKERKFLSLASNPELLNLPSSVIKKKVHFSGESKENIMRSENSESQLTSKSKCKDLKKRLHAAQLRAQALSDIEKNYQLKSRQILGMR
Sequence of PHKG1 (human) (Q16816 whole entry, looked up): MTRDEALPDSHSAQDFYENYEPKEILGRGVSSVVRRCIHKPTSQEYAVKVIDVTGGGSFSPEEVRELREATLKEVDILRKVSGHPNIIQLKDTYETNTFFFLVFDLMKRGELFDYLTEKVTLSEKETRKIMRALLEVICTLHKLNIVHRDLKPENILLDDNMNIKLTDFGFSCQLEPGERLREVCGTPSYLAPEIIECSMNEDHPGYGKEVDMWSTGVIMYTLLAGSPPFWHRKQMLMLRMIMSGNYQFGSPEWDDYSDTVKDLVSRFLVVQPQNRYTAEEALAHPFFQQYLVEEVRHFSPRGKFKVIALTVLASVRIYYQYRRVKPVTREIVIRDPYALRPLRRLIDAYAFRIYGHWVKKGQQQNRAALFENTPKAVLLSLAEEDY
Sequence of RPS6KB1 (human), P23443 [T412E] (P23443 whole entry T412E, looked up): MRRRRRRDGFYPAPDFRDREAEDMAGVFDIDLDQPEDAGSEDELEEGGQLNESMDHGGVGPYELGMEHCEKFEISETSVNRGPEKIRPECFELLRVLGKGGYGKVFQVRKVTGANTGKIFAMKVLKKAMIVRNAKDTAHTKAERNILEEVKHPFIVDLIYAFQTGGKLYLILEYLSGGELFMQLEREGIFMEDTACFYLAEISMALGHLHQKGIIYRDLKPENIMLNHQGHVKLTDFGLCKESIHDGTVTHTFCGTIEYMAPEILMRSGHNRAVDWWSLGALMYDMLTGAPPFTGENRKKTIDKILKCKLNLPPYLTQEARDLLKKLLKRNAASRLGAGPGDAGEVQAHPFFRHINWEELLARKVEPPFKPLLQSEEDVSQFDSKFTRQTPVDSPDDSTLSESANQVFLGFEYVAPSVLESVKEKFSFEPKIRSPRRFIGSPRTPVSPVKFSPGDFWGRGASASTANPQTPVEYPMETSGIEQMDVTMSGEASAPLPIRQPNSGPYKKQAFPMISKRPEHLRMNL
Sequence of MAPK11 (human) (Q15759 whole entry, looked up): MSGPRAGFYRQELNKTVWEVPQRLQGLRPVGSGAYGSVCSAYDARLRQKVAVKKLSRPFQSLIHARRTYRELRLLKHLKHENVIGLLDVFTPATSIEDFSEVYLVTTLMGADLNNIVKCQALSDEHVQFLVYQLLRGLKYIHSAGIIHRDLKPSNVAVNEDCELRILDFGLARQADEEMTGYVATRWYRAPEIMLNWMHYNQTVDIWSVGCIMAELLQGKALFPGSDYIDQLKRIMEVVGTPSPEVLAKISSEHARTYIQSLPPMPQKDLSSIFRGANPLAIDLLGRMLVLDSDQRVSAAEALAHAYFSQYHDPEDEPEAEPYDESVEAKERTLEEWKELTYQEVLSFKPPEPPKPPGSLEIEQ
Sequence of CaMK1 (human) (Q14012 whole entry, looked up): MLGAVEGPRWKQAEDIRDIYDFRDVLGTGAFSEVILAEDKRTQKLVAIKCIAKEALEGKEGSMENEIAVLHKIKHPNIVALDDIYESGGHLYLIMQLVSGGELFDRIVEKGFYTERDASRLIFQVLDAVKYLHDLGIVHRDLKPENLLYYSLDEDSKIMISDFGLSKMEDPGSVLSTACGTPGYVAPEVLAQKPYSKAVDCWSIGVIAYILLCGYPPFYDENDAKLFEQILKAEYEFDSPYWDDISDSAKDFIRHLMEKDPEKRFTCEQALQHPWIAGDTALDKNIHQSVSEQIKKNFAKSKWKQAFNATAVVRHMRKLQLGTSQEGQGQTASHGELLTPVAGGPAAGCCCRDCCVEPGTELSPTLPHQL
Sequence of MAPK13 (human) (O15264 whole entry, looked up): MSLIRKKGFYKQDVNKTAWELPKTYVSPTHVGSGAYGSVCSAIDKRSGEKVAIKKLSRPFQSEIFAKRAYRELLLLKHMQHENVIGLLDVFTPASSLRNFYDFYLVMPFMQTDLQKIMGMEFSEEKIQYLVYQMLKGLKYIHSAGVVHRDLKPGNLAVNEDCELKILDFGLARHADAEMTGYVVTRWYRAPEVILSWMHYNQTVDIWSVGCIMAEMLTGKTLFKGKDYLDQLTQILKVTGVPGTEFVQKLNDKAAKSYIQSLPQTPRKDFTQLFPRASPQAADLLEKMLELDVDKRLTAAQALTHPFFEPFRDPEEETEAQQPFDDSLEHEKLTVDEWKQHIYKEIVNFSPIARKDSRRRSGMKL

inhibition (ABL1 (human)) [%]	inhibition (AURKA (human)) [%]	inhibition (BRSK2 (human)) [%]	inhibition (CDK2 CCNA2 (human)) [%]	inhibition (CHEK2 (human)) [%]	inhibition (CaMK1 (human)) [%]	inhibition (DYRK2 (human)) [%]	inhibition (EEF2K (human)) [%]	inhibition (EPHA4 (human)) [%]	inhibition (EPHB3 (human)) [%]	inhibition (EPHB4 (human)) [%]	inhibition (FLT1 (human)) [%]	inhibition (HIPK3 (human)) [%]	inhibition (IKBKE (human)) [%]	inhibition (LCK (mouse)) [%]	inhibition (MAPK10 (human)) [%]	inhibition (MAPK11 (human)) [%]	inhibition (MAPK13 (human)) [%]	inhibition (MAPK9 (human)) [%]	inhibition (MELK (human)) [%]	Compound	further results
0	8	18	0	20	6	13	6	15	0	9	28	0	0	0	0	7	0	7	0	O=c1c(NC(=S)NCc2ccccc2)cnc2[nH]ccn12	inhibition (MST4 (human)): 0%; inhibition (NEK2 (human)): 4%; inhibition (NUAK1 (human)): 0%; inhibition (PAK6 (human)): 0%; inhibition (PAK7 (human)): 0%; inhibition (PHKG1 (human)): 24%; inhibition (PKN2 (human)): 0%; inhibition (PLK1 (human)): 0%; inhibition (PRKCA (human)): 2%; inhibition (PRKCG (human)): 0%; inhibition (RPS6KA3 KD1 KD2 (human)): 20%; inhibition [1]: 9%; inhibition [2]: 0%; inhibition (SRPK1 (human)): 9%; inhibition [3]: 0%; inhibition (TAOK1 (human)): 0%; inhibition (TBK1 (human)): 0%; inhibition (TEK (human)): 0%; inhibition (ZAP70 (human)): 0%
3	0	22	0	0	6	27	6	11	0	6	0	0	0	18	0	2	0	3	0	O=C(Nc1cnc2[nH]cnn2c1=O)c1ccccc1	inhibition (MST4 (human)): 0%; inhibition (NEK2 (human)): 0%; inhibition (NUAK1 (human)): 0%; inhibition (PAK6 (human)): 0%; inhibition (PAK7 (human)): 0%; inhibition (PHKG1 (human)): 28%; inhibition (PKN2 (human)): 0%; inhibition (PLK1 (human)): 0%; inhibition (PRKCA (human)): 0%; inhibition (PRKCG (human)): 2%; inhibition (RPS6KA3 KD1 KD2 (human)): 11%; inhibition [1]: 0%; inhibition [2]: 0%; inhibition (SRPK1 (human)): 0%; inhibition [3]: 0%; inhibition (TAOK1 (human)): 0%; inhibition (TBK1 (human)): 24%; inhibition (TEK (human)): 0%; inhibition (ZAP70 (human)): 0%

The remaining lines, values behind:

Compound	inhibition (ABL1 (human)) [%]	inhibition (AURKA (human)) [%]	inhibition (BRSK2 (human)) [%]	inhibition (CDK2 CCNA2 (human)) [%]	inhibition (CHEK2 (human)) [%]	inhibition (CaMK1 (human)) [%]	inhibition (DYRK2 (human)) [%]	inhibition (EEF2K (human)) [%]	inhibition (EPHA4 (human)) [%]	inhibition (EPHB3 (human)) [%]	inhibition (EPHB4 (human)) [%]	inhibition (FLT1 (human)) [%]	inhibition (HIPK3 (human)) [%]	inhibition (IKBKE (human)) [%]	inhibition (LCK (mouse)) [%]	inhibition (MAPK10 (human)) [%]	inhibition (MAPK11 (human)) [%]	inhibition (MAPK13 (human)) [%]	inhibition (MAPK9 (human)) [%]	inhibition (MELK (human)) [%]	further results
CC(=O)Nc1nc2cnc(-c3c(C)cccc3C)cn2n1	18	10	11	0	0	35	0	7	10	4	27	9	0	0	0	0	0	19	0	0	inhibition (MST4 (human)): 0%; inhibition (NEK2 (human)): 0%; inhibition (NUAK1 (human)): 0%; inhibition (PAK6 (human)): 0%; inhibition (PAK7 (human)): 5%; inhibition (PHKG1 (human)): 0%; inhibition (PKN2 (human)): 0%; inhibition (PLK1 (human)): 0%; inhibition (PRKCA (human)): 0%; inhibition (PRKCG (human)): 12%; inhibition (RPS6KA3 KD1 KD2 (human)): 23%; inhibition [1]: 0%; inhibition [2]: 0%; inhibition (SRPK1 (human)): 10%; inhibition [3]: 0%; inhibition (TAOK1 (human)): 1%; inhibition (TBK1 (human)): 15%; inhibition (TEK (human)): 0%; inhibition (ZAP70 (human)): 9%
COc1ccc(-c2cc3c(=O)[nH]cnc3s2)cc1OC	34	1	9	0	38	66	56	2	12	0	0	39	0	32	29	3	15	0	8	22	inhibition (MST4 (human)): 16%; inhibition (NEK2 (human)): 0%; inhibition (NUAK1 (human)): 0%; inhibition (PAK6 (human)): 0%; inhibition (PAK7 (human)): 0%; inhibition (PHKG1 (human)): 13%; inhibition (PKN2 (human)): 0%; inhibition (PLK1 (human)): 0%; inhibition (PRKCA (human)): 18%; inhibition (PRKCG (human)): 0%; inhibition (RPS6KA3 KD1 KD2 (human)): 52%; inhibition [1]: 30%; inhibition [2]: 63%; inhibition (SRPK1 (human)): 36%; inhibition [3]: 0%; inhibition (TAOK1 (human)): 28%; inhibition (TBK1 (human)): 3%; inhibition (TEK (human)): 0%; inhibition (ZAP70 (human)): 0%
Nc1cnc2c(-c3c(F)cccc3F)cccn2c1=O	40	89	43	88	25	60	20	16	25	42	39	72	23	13	39	33	13	0	17	43	inhibition (MST4 (human)): 77%; inhibition (NEK2 (human)): 0%; inhibition (NUAK1 (human)): 76%; inhibition (PAK6 (human)): 10%; inhibition (PAK7 (human)): 35%; inhibition (PHKG1 (human)): 38%; inhibition (PKN2 (human)): 73%; inhibition (PLK1 (human)): 0%; inhibition (PRKCA (human)): 36%; inhibition (PRKCG (human)): 25%; inhibition (RPS6KA3 KD1 KD2 (human)): 52%; inhibition [1]: 0%; inhibition [2]: 0%; inhibition (SRPK1 (human)): 58%; inhibition [3]: 62%; inhibition (TAOK1 (human)): 82%; inhibition (TBK1 (human)): 23%; inhibition (TEK (human)): 42%; inhibition (ZAP70 (human)): 1%
